Data taken from the NIST ThermoML archive (doi:10.1021/je050070r).

Conditions: Liquid

O=C(O)C(F)(F)C(F)(F)C(F)(F)C(F)(F)C(F)(F)C(F)(F)C(F)(F)C(F)(F)C(F)(F)C(F)(F)C(F)(F)F [dodecanoic acid, tricosafluoro-]
Conditions	vapor or sublimation pressure [kPa]
400.73 K	0.856
413.72 K	1.819
422.1 K	2.854
422.75 K	2.985
433.27 K	4.848
445.63 K	8.29
457.94 K	13.81
470.59 K	22.07
483.66 K	34.48
498.85 K	55.15
520.51 K	99.96

O=C(O)C(F)(F)C(F)(F)C(F)(F)C(F)(F)C(F)(F)C(F)(F)C(F)(F)C(F)(F)C(F)(F)F [nonadecafluorodecanoic acid]
Conditions	vapor or sublimation pressure [kPa]
402.71 K	3.129
406.24 K	3.749
414.08 K	5.541
425.35 K	9.331
436.83 K	15.18
447.12 K	22.77
460.65 K	37.23
476.08 K	62.05
492.03 K	99.97

O=C(O)C(F)(F)C(F)(F)C(F)(F)C(F)(F)C(F)(F)C(F)(F)C(F)(F)F [pentadecafluorooctanoic acid]
Conditions	vapor or sublimation pressure [kPa]
332.4 K	0.128
335.52 K	0.168
339.75 K	0.231
345.75 K	0.361
352.15 K	0.581
359.75 K	0.96
368.05 K	1.602
377.09 K	2.69
387.15 K	4.591
397.55 K	7.691
409.26 K	13.07
421.75 K	22.16
435.35 K	37.25
450.95 K	63.98
463.95 K	96.5

O=C(O)C(F)(F)C(F)(F)C(F)(F)C(F)(F)C(F)(F)C(F)(F)C(F)(F)C(F)(F)F [perfluorononanoic acid]
Conditions	vapor or sublimation pressure [kPa]
372.78 K	1.12
382.69 K	2.02
390.81 K	3.12
401.7 K	5.54
412.92 K	9.33
423.86 K	15.19
432.85 K	22.77
446.11 K	37.25
461.08 K	62.07
476.13 K	99.97
476.27 K	99.97

O=C(O)C(F)(F)C(F)(F)C(F)(F)C(F)(F)C(F)(F)C(F)(F)C(F)(F)C(F)(F)C(F)(F)C(F)(F)F [perfluoroundecanoic acid]
Conditions	vapor or sublimation pressure [kPa]
385.19 K	0.616
393.78 K	1.062
402.69 K	1.752
412.29 K	2.785
412.41 K	2.789
422.37 K	4.513
431.47 K	6.925
445.17 K	12.44
459.92 K	20.7
473.83 K	34.49
475.24 K	34.48
491.44 K	58.6
491.79 K	58.6
509.83 K	96.51
510.8 K	99.97
